Experimental data taken from patent US10947271B2, “Antibacterial agents” (THE UNIVERSITY OF QUEENSLAND, priority 2014, dated 2021).

How the values were obtained:
Type in all cases: cell-based
Settings in all cases: 24 h incubation, visual reading
[1] = test system: Enterococcus faecium MDR Van A ATCC 51559; test: MIC assay, E. faecium MDR Van A ATCC 51559
Method in brief: (§1)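 Overnight MHB cultures at 37° C were diluted 40-fold and grown 2-3 hrs to mid-log, then added at 5×10e5 CFU/mL to twofold compound dilutions (8 to 0.003 μg/ml). Plates were incubated 24 h at 37° C and MIC scored by eye.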

[2] = test system: Streptococcus pneumoniae MDR ATCC 700677; test: MIC assay, S. pneumoniae MDR ATCC 700677
Method in brief: as §1

[3] = test system: Staphylococcus aureus MRSA ATCC 43300; test: MIC assay, S. aureus MRSA ATCC 43300
Method in brief: as §1

Compound | Minimum Inhibitory Concentration (MIC) E. faecium ATCC51559 [1] | Minimum Inhibitory Concentration (MIC) S. pneumoniae ATCC 700677 [2] | Minimum Inhibitory Concentration (MIC) Staph. aureus ATCC43300 [3]
CCC(=O)N[C@@H](CCCCN)C(=O)N[C@@H](CCCCN)C(=O)N[C@@H](CCCCNC(=O)[C@H]1NC(=O)[C@H]2NC(=O)[C@H](NC(=O)[C@@H]3NC(=O)[C@H](CC(N)=O)NC(=O)[C@H](NC(=O)[C@@H](CC(C)C)NC)[C@H](O)c4ccc(c(Cl)c4)Oc4cc3cc(c4O[C@@H]3O[C@H](CO)[C@@H](O)[C@H](O)[C@H]3O[C@H]3C[C@](C)(N)[C@H](O)[C@H](C)O3)Oc3ccc(cc3Cl)[C@H]2O)c2ccc(O)c(c2)-c2c(O)cc(O)cc21)C(=O)O [MCC_005388] | x (x = >4) | x (x = >4) | xx (xx = 1-4)
CCCCCCCc1ccc(C(=O)NC(CCCCN)C(=O)NC(CCCCN)C(=O)NC(CCCCNC(=O)C2NC(=O)C3NC(=O)C(NC(=O)C4NC(=O)C(CC(N)=O)NC(=O)C(NC(=O)C(CC(C)C)NC)C(O)c5ccc(c(Cl)c5)Oc5cc4cc(c5OC4OC(CO)C(O)C(O)C4OC4CC(C)(N)C(O)C(C)O4)Oc4ccc(cc4Cl)C3O)c3ccc(O)c(c3)-c3c(O)cc(O)cc32)C(=O)NC)cc1 (stereo not drawn) [MCC_000500] | xx (xx = 1-4) | xxxxx (xxxxx = <0.01) | xxxxx (xxxxx = <0.01)
CNC(=O)C(CCCCNC(=O)C1NC(=O)C2NC(=O)C(NC(=O)C3NC(=O)C(CC(N)=O)NC(=O)C(NC(=O)C(CC(C)C)NC)C(O)c4ccc(c(Cl)c4)Oc4cc3cc(c4OC3OC(CO)C(O)C(O)C3OC3CC(C)(N)C(O)C(C)O3)Oc3ccc(cc3Cl)C2O)c2ccc(O)c(c2)-c2c(O)cc(O)cc21)NC(=O)C(CCCCN)NC(=O)C(CCCCN)NC(=O)CCCOc1ccccc1 (stereo not drawn) [MCC_000505] | x (x = >4) | xx (xx = 1-4) | xxx (xxx = 0.1-<1)
CCCCCCCCCCC(=O)NCC(=O)N[C@@H](CCCCN)C(=O)N[C@@H](CCCCN)C(=O)N[C@@H](CCCCN)C(=O)N[C@@H](CCCCNC(=O)[C@H]1NC(=O)[C@H]2NC(=O)[C@H](NC(=O)[C@@H]3NC(=O)[C@H](CC(N)=O)NC(=O)[C@H](NC(=O)[C@@H](CC(C)C)NC)[C@H](O)c4ccc(c(Cl)c4)Oc4cc3cc(c4O[C@@H]3O[C@H](CO)[C@@H](O)[C@H](O)[C@H]3O[C@H]3C[C@](C)(N)[C@H](O)[C@H](C)O3)Oc3ccc(cc3Cl)[C@H]2O)c2ccc(O)c(c2)-c2c(O)cc(O)cc21)C(=O)O [MCC_000346] | x (x = >4) | xxxx (xxxx = 0.01-<0.1) | xxxx (xxxx = 0.01-<0.1)
CCCCCCCCCCCCCC(=O)N[C@@H](CCCCN)C(=O)N[C@@H](CCCCN)C(=O)NCC(=O)NCCCNC(=O)[C@H]1NC(=O)[C@H]2NC(=O)[C@H](NC(=O)[C@@H]3NC(=O)[C@H](CC(N)=O)NC(=O)[C@H](NC(=O)[C@@H](CC(C)C)NC)[C@H](O)c4ccc(c(Cl)c4)Oc4cc3cc(c4O[C@@H]3O[C@H](CO)[C@@H](O)[C@H](O)[C@H]3O[C@H]3C[C@](C)(N)[C@H](O)[C@H](C)O3)Oc3ccc(cc3Cl)[C@H]2O)c2ccc(O)c(c2)-c2c(O)cc(O)cc21 [MCC_000784] | xxxx (xxxx = 0.01-<0.1) | xxxxx (xxxxx = <0.01) | xxxxx (xxxxx = <0.01)
CCCCCCCCCCCC(=O)N[C@@H](CCCCN)C(=O)N[C@@H](CCCCN)C(=O)N[C@@H](CCCCN)C(=O)N[C@@H](CCCCNC(=O)[C@H]1NC(=O)[C@H]2NC(=O)[C@H](NC(=O)[C@@H]3NC(=O)[C@H](CC(N)=O)NC(=O)[C@H](NC(=O)[C@@H](CC(C)C)NC)[C@H](O)c4ccc(c(Cl)c4)Oc4cc3cc(c4O[C@@H]3O[C@H](CO)[C@@H](O)[C@H](O)[C@H]3O[C@H]3C[C@](C)(N)[C@H](O)[C@H](C)O3)Oc3ccc(cc3Cl)[C@H]2O)c2ccc(O)c(c2)-c2c(O)cc(O)cc21)C(=O)O [MCC_000348] | xxx (xxx = 0.1-<1) | xxxxx (xxxxx = <0.01) | xxxxx (xxxxx = <0.01)
CNC(CC(C)C)C(=O)NC1C(=O)NC(CC(N)=O)C(=O)NC2C(=O)NC3C(=O)NC(C(=O)NC(C(=O)NCCCCC(NC(=O)C(CCCCN)NC(=O)C(CCCCN)NC(=O)CNC(=O)c4ccc(Oc5ccccc5)cc4)C(=O)O)c4cc(O)cc(O)c4-c4cc3ccc4O)C(O)c3ccc(c(Cl)c3)Oc3cc2cc(c3OC2OC(CO)C(O)C(O)C2OC2CC(C)(N)C(O)C(C)O2)Oc2ccc(cc2Cl)C1O (stereo not drawn) [MCC_000381] | x (x = >4) | xx (xx = 1-4) | xxx (xxx = 0.1-<1)
CCCCCCC(CCCC)C(=O)NC(CCCCN)C(=O)NC(CCCCN)C(=O)NC(CCCCNC(=O)C1NC(=O)C2NC(=O)C(NC(=O)C3NC(=O)C(CC(N)=O)NC(=O)C(NC(=O)C(CC(C)C)NC)C(O)c4ccc(c(Cl)c4)Oc4cc3cc(c4OC3OC(CO)C(O)C(O)C3OC3CC(C)(N)C(O)C(C)O3)Oc3ccc(cc3Cl)C2O)c2ccc(O)c(c2)-c2c(O)cc(O)cc21)C(=O)NC (stereo not drawn) [MCC_000496] | x (x = >4) | xxx (xxx = 0.1-<1) | xxxx (xxxx = 0.01-<0.1)
CCCCCCCCCCC(=O)N[C@@H](CCCCN)C(=O)NCCCNC(=O)[C@H]1NC(=O)[C@H]2NC(=O)[C@H](NC(=O)[C@@H]3NC(=O)[C@H](CC(N)=O)NC(=O)[C@H](NC(=O)[C@@H](CC(C)C)NC)[C@H](O)c4ccc(c(Cl)c4)Oc4cc3cc(c4O[C@@H]3O[C@H](CO)[C@@H](O)[C@H](O)[C@H]3O[C@H]3C[C@](C)(N)[C@H](O)[C@H](C)O3)Oc3ccc(cc3Cl)[C@H]2O)c2ccc(O)c(c2)-c2c(O)cc(O)cc21 [MCC_005198] | xx (xx = 1-4) | xxxx (xxxx = 0.01-<0.1) | xxxx (xxxx = 0.01-<0.1)
CCCCCCCCCCCCC(=O)N[C@@H](CCCCN)C(=O)N[C@@H](CCCCN)C(=O)N[C@@H](CCCCNC(=O)[C@H]1NC(=O)[C@H]2NC(=O)[C@H](NC(=O)[C@@H]3NC(=O)[C@H](CC(N)=O)NC(=O)[C@H](NC(=O)[C@@H](CC(C)C)NC)[C@H](O)c4ccc(c(Cl)c4)Oc4cc3cc(c4O[C@@H]3O[C@H](CO)[C@@H](O)[C@H](O)[C@H]3O[C@H]3C[C@](C)(N)[C@H](O)[C@H](C)O3)Oc3ccc(cc3Cl)[C@H]2O)c2ccc(O)c(c2)-c2c(O)cc(O)cc21)C(=O)O [MCC_000349] | xxx (xxx = 0.1-<1) | xxxxx (xxxxx = <0.01) | xxxxx (xxxxx = <0.01)
